In patent US8980938B2, “CXCR2 inhibitors” (Sanofi, priority 2006, dated 2015) one finds IC50 data, which are given here for seven compounds.

Broadly, the IC50 is the concentration that inhibits the measured activity by half.

Structures are written as SMILES.

The target in this assay is human CXCR2 (Homo sapiens (Human), UniProt P25025). The assay can be described thus: CXCR2 inhibition: calcium fluorescence assay (FLIPR) with chemokine IL-8. In kind it is cell-based. Conditions: CHO-K1 cells stably transfected with human CXCR2 and Gα16, Fluo-4 calcium response. From the text: Determination of CXCR2 Inhibition: Calcium Fluorescence Assay (FLIPR)
Sequence of human CXCR2 (P25025 whole entry): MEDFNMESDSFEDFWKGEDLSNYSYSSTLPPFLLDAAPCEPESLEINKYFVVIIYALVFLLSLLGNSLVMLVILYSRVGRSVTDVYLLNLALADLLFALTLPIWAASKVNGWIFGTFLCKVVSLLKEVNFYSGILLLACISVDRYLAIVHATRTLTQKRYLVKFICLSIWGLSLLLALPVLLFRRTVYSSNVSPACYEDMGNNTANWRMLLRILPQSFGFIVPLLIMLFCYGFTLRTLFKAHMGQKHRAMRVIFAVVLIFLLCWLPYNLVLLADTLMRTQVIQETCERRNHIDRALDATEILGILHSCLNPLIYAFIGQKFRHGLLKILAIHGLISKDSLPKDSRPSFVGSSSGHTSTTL
The assay is based on the detection of intracellular calcium changes detected by the selective, calcium-chelating dye, Fluo-4 (Molecular Probes). A large fluorescence intensity increase is observed upon calcium association with Fluo-4. The dye is delivered to the cell interior using an acetoxymethylester form of Fluo-4, where the intracellular esterase activity results in the charged species being released and trapped within the cytoplasm of the cell. […] By co-expressing the CXCR2 receptor and the promiscuous Gα16 protein, activation of this chemokine receptor is directed into this phospholipase C cascade resulting in intracellular calcium mobilization.
The CHO-K1 cells stably transfected with human CXCR2 and the promiscuous Gα16 protein are maintained in a log phase of growth at 37° C. and 5% CO2 in the following media: Iscove's, 10% FBS, 1X Penicillin-Streptomycin, 400 μg/ml G418 and 350 μg/ml Zeocin. Approximately 24-48 hours prior to the assay, 20,000-30,000 cells/well are plated onto a 96-well black/clear bottomed assay plate (Becton Dickinson) with a well volume of 180 μl. For dye loading the culture medium is carefully removed and replaced by 100 μl/well dye solution (4 μM Fluo-4 in 135 mM NaCl, 5 mM KCl, 1 mM magnesium sulphate, 5 mM glucose, 20 mM hepes, 2.5 mM probenecid; pH 7.4). Cells are incubated for 1 h at 37° C., and then washed 3× with buffer. After washing 90 μl buffer/well are left. Increasing concentrations of compound is added in 45 μl buffer (4× concentrated) followed by 10 min incubation at 37° C. Then the chemokine (10-100 nM) is applied in 45 μl buffer (4× concentrated) and the measurement is performed for 2 min. The IC50 value of a compound can be determined by calculation of % inhibition of total calcium response to the chemokine.
CXCR2 Inhibition with Chemokine IL-8 for Selected Example Compounds: […]

For the compound `CC(C)(NC(=O)c1ccc2ccsc2c1OCCOc1ccc(F)cc1)C(=O)O` [Example 11, 2-({7-[2-(4-Fluoro-phenoxy)-ethoxy]-benzo[b]thiophene-6-carbonyl}-amino)-2-methyl-propionic acid], the IC50 turned out to be 800 nM.

Consider `CC(C)(NC(=O)c1ccc2ccsc2c1OCCCc1ccccc1)C(=O)O` [Example 8, 2-Methyl-2-{[7-(3-phenyl-propoxy)-benzo[b]thiophene-6-carbonyl]-amino}-propionic acid], for which the concentration for half-maximal inhibition (IC50) came to 600 nM.

As to `CC(C)(NC(=O)c1ccc2sccc2c1OCCOc1ccccc1)C(=O)O` [Example 12, 2-Methyl-2-{[4-(2-phenoxy-ethoxy)-benzo[b]thiophene-5-carbonyl]-amino}-propionic acid], the IC50 was found to be 1700 nM.

In the case of `CC(C)(NC(=O)c1ccc2c(c1OCCCCc1ccccc1)CCCC2)C(=O)O` [Example 5, 2-Methyl-2-{[1-(4-phenyl-butoxy)-5,6,7,8-tetrahydro-naphthalene-2-carbonyl]-amino}-propionic acid], the IC50 is 2000 nM.

Take `CC(C)(NC(=O)c1ccc2c(c1OCCCOc1ccccc1)CCCC2)C(=O)O` [Example 7, 2-Methyl-2-{[1-(3-phenoxy-propoxy)-5,6,7,8-tetrahydro-naphthalene-2-carbonyl]-amino}-propionic acid]: the 50% inhibitory concentration (IC50) amounted to 2100 nM.

`CC(C)(NC(=O)c1ccc2c(c1OCCC1CCCCC1)CCCC2)C(=O)O` [Example 2, 2-{[1-(2-Cyclohexyl-ethoxy)-5,6,7,8-tetrahydro-naphthalene-2-carbonyl]-amino}-2-methyl-propionic acid]: the IC50 turned out to be 1400 nM.

As to `CC(C)(NC(=O)c1ccc2c(c1OCCOc1ccccc1)CCCC2)C(=O)O` [Example 3, 2-Methyl-2-{[1-(2-phenoxy-ethoxy)-5,6,7,8-tetrahydro-naphthalene-2-carbonyl]-amino}-propionic acid], the IC50 was found to be 1000 nM.
